Some results are limits rather than exact numbers.

The record followed here is patent US20090099218A1, “SYNTHESIS OF NOVEL TUBULIN POLYMERIZATION INHIBITORS: BENZOYLPHENYLUREA (BPU) SULFUR ANALOGS” (priority 2007, published 2009).

For test [1], the system named is LAPC-4. Nature of the test: MTT growth inhibition, prostate cancer cell line LAPC-4. The format is cell-based, human. The following applies: MTT assay; average of three independent experiments. Here is the method: (§1) This MTT assay was carried using human prostate cancer cell lines CWR22R, LAPC-4 and LnCap using Promega cell titer 96 nonradioactive cell proliferation kits. Cells were trypsinized and centrifuged at 1000 rpm for 5 minutes and the supernatant was aspirated. Cells were resuspended with HBSS to a concentration of 10^6/ml. Cell suspension was diluted in serum containing medium to plate 2000 cells/well/0.2 ml. Cell suspension was transferred to sterile solution basin. Cells were plated using multichannel pipette set at 200 μl and incubated overnight for attachment. One plate was prepared for day 0 MTT assay as follows: 100 μl of media was removed from each well using multichannel pipette and 15 μl of MTT reagent was added. Plates were incubated at 37° C. for 4 hrs. […] of STOP solution was added to each well and incubated at room temperature for 1 hour. Absorbance was measured at 570 and 650 nm on plate reader. All the media from the remaining plates were carefully removed and the cells were treated with the media containing drug. MTT assays were done on days 0, 3, 5 and 7. In the preliminary screening […] BPU sulfur analogs 6l, 6h, 6n, 7d and 8h were screened and their activity was compared with compound 1.
(§2) Compounds with significant inhibitory activity in pancreatic cancer cells were further evaluated against prostate cancer cell lines in the MTT assay, (Mosmann, T., J. Immunol. Methods 65:55-63 (1983)) and the results were compared to those for compound 1 (Table 3).

For test [2], the system named is Miapaca2. Briefly: MTT growth inhibition, pancreatic cell line Miapaca2. The format is cell-based. The note with it: MTT assay, 96 h treatment; average of three independent experiments. The method, then: (§3) Eight of these analogs 6d, 6h, 6n, 6g, 7b, 7d, 8g, and 8h were tested for their cytotoxicity in seven pancreatic cell lines ASPC1, Panc1, Panc203, Panc430, Pane 1005, MiaPaca2, and HS766T using MTT assay. Cells were trypsinized, seeded at 5×10^3 cells/well in 96-well plate and allowed to grow for 24 hours before the treatment with exponential increasing concentrations of drugs in the presence of 10% FBS. After a 96-hours period of treatment, 20 μl of MTT solution (5 mg/ml in PBS) were added to each well, and the plates were then incubated for 3 hours at 37° C. Medium was then replaced with 100 μl of DMSO per well. Plates were shaken and the optical density was measured at 570 nm using a multiwell plate reader (Bio-Rad, Model 550, Bio-Rad Inc., Hercules, Calif.). Each experiment was performed in triplicate for each drug concentration and was carried out independently at least 3 times. The IC50 value was defined as the concentration needed for a 50% reduction in the absorbance calculated based on the survival curves. Response to drug treatment was assessed by standardizing treatment groups to untreated controls. Compounds activity was compared with compound 1.
(§4) Table 2 (Growth Inhibition of Pancreatic Cancer Cell Lines by BPU and BPTU Analogues (IC50) a) compares the cytotoxicity of a series of new derivatives against a panel of seven pancreatic cancer cell lines, as determined by MTT assay. See, Mosmann, T., J. Immunol. Methods 65:55-63 (1983).

Test [3] has as its system Panc203. Nature of the test: MTT growth inhibition, pancreatic cell line Panc203. The format is cell-based. The note with it: MTT assay, 96 h treatment; average of three independent experiments. Here is the method:
as §3, §4
A general note: Tetrazolium assays rely on reduction of a dye to a coloured formazan, in cell work by metabolically active cells.

Test [4] concerns Panc1. Nature of the test: MTT growth inhibition, pancreatic cell line Panc1. The note with it: MTT assay, 96 h treatment; average of three independent experiments. It is filed as cell-based. The method, then:
as §3, §4

Test [5] relates to HS766. Nature of the test: MTT growth inhibition, pancreatic cell line HS766. The format is cell-based. The note with it: MTT assay, 96 h treatment; average of three independent experiments. The method, then: as §3, §4
For test [6], the system named is tubulin. Nature of the test: Inhibition of tubulin polymerization. It is filed as biochemical. The note with it: Tubulin was at 10 μM; read-out: tubulin IC50 ± SD (inhibition of tubulin polymerization). The method, then: Briefly, tubulin polymerization was followed turbidimetrically at 350 nm in Beckman model DU7400 and DU7500 recording spectrophotometers equipped with electronic temperature controllers. […] Samples were pre-incubated for 15 min at 30° C. and chilled on ice. GTP (final concentration, 0.4 mmol/L) was added to each reaction mixture, and these were placed in cuvettes held at 0° C. Baselines were established, the temperature was raised to 30° C.

Test [7] concerns LnCaP. Briefly: MTT growth inhibition, prostate cancer cell line LnCaP. It is filed as cell-based, human. The following applies: MTT assay; average of three independent experiments. Here is the method:
as §1, §2

Test [8] has as its system Panc1005. Briefly: MTT growth inhibition, pancreatic cell line Panc1005. It is filed as cell-based. The note with it: MTT assay, 96 h treatment; average of three independent experiments. Here is the method: as §3, §4
Test [9] has as its system ASPC1. Nature of the test: MTT growth inhibition, pancreatic cell line ASPC1. The format is cell-based. The following applies: MTT assay, 96 h treatment; average of three independent experiments. The method, then:
as §3, §4

The subject of test [10] is CWR22R. Briefly: MTT growth inhibition, prostate cancer cell line CWR22R. The format is cell-based, human. The note with it: MTT assay; average of three independent experiments.
In test [11] the test system is Panc430. Briefly: MTT growth inhibition, pancreatic cell line Panc430. The format is cell-based. The note with it: MTT assay, 96 h treatment; average of three independent experiments. Here is the method: as §3, §4
Test [12] has as its system tubulin. Nature of the test: Inhibition of [3H]colchicine binding. The following applies: Tubulin 1 μM; [3H]colchicine and inhibitor at 5 μM.

The term IC50 denotes the midpoint of a concentration-inhibition curve. Turning to `O=C(NC(=O)c1ccccc1[N+](=O)[O-])Nc1ccc(Oc2nccc(Br)n2)cc1` [Compound 6m], the IC50 in test [1] was 200 nM; in [2] it was 740 nM; in test [3] it was over 10000 nM; in test [4] it was 680 nM; in test [5], 470 nM; in test [6], 4700 nM. Further, the IC50 is 1000 nM in test [7]; over 10000 nM in [8]; 770 nM in [9]; 5000 nM in test [10]; 10000 nM in test [11]. The “colchicine binding (% ± SD), inhibition of [3H]colchicine binding” value in test [12] was 21 ± 5%.

In the case of `COc1cc([C@@H]2c3cc4c(cc3[C@H](O)[C@H]3COC(=O)[C@H]23)OCO4)cc(OC)c1OC` [podophyllotoxin, reference compound], in test [12], the “colchicine binding (% ± SD), inhibition of [3H]colchicine binding” value is reported as 77 ± 8%.
